Laboratory results reported in the supplement of paper PMC10307832.

Assays:
Experiment in all cases: relative viability (nuclei count vs DMSO), 5 days (fraction); higher = more cells survive
AT-7519 + Navitoclax = compound: O=C(NC1CCNCC1)c1n[nH]cc1NC(=O)c1c(Cl)cccc1Cl [AT-7519] + CC1(C)CCC(c2ccc(Cl)cc2)=C(CN2CCN(c3ccc(C(=O)NS(=O)(=O)c4ccc(N[C@H](CCN5CCOCC5)CSc5ccccc5)c(S(=O)(=O)C(F)(F)F)c4)cc3)CC2)C1 [Navitoclax] (partner 0.5 µM)
In short: (§1)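 Each reported value is a median over duplicate plates. It expresses relative viability: treated-well nuclei count divided by vehicle-well nuclei count. Lung cancer cell lines in 1536-well plates were dosed by pin tool a day after seeding, alone with one drug or with a fixed anchor-drug dose plus five library-drug doses (not always all listed) in √10 steps, and nuclei were counted after 5 days.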

[1] = compound: C1=CC2=C(C=C(C(=C2N=C1)O)N=NC3=CC4=C(C=C3)C=C(C=C4)S(=O)(=O)O)S(=O)(=O)O + COc1cccc2cc(-c3nc([C@H]4CC[C@H](C(=O)O)CC4)n4ncnc(N)c34)[nH]c12 [OSI-027] (partner 0.5 µM)
In short: as §1

AT-7519 + Linsitinib = compound: O=C(NC1CCNCC1)c1n[nH]cc1NC(=O)c1c(Cl)cccc1Cl [AT-7519] + C[C@]1(O)C[C@@H](c2nc(-c3ccc4ccc(-c5ccccc5)nc4c3)c3c(N)nccn32)C1 [Linsitinib] (partner 1 µM)
In short: as §1

[2] = compound: C1=CC2=C(C=C(C(=C2N=C1)O)N=NC3=CC4=C(C=C3)C=C(C=C4)S(=O)(=O)O)S(=O)(=O)O + O=C(CCCCCCC(=O)Nc1ccccc1)NO [Vorinostat] (partner 1 µM)
In short: as §1

| Cell Line | relative viability (AT-7519 + Navitoclax; first compound 0.01 µM) | relative viability (AT-7519 + Navitoclax; first compound 0.03162 µM) | relative viability (AT-7519 + Navitoclax; first compound 0.3162 µM) | relative viability (AT-7519 + Navitoclax; first compound 1 µM) | relative viability ([1]; first compound 0.08 µM) | relative viability ([1]; first compound 0.253 µM) | relative viability ([1]; first compound 0.8 µM) | relative viability ([1]; first compound 2.53 µM) | relative viability ([1]; first compound 8 µM) | relative viability (AT-7519 + Linsitinib; first compound 0.01 µM) | relative viability (AT-7519 + Linsitinib; first compound 0.03162 µM) | relative viability (AT-7519 + Linsitinib; first compound 0.3162 µM) | relative viability (AT-7519 + Linsitinib; first compound 1 µM) | relative viability ([2]; first compound 0.08 µM) | relative viability ([2]; first compound 0.253 µM) | relative viability ([2]; first compound 0.8 µM) | relative viability ([2]; first compound 2.53 µM) | relative viability ([2]; first compound 8 µM) |
| --- | --- | --- | --- | --- | --- | --- | --- | --- | --- | --- | --- | --- | --- | --- | --- | --- | --- | --- |
| LXF-289 | 0.984 | 1.07 | 1 | 0.917 | 0.84 | 0.733 | 0.745 | 0.809 | 0.788 | 0.957 | 1.02 | 1.04 | 0.933 | 0.75 | 0.719 | 0.817 | 0.704 | 0.766 |
| NCI-H23 | 0.858 | 0.622 | 1.02 | 0.461 | 0.619 | 0.585 | 0.637 | 0.654 | 0.603 | 0.591 | 0.619 | 0.523 | 0.255 | 0.661 | 0.627 | 0.599 | 0.561 | 0.633 |
| NCI-H322M | 1.07 | 1.16 | 1.09 | 1.07 | 0.651 | 0.501 | 0.513 | 0.586 | 0.509 | 0.95 | 0.926 | 0.962 | 0.946 | 0.967 | 0.825 | 0.864 | 0.856 | 0.905 |
| NCI-H441 | 0.592 | 0.628 | 0.571 | 0.412 | 0.504 | 0.638 | 0.461 | 0.66 | 0.588 | 0.553 | 0.482 | 0.487 | 0.395 | 0.903 | 0.684 | 0.845 | 0.805 | 0.837 |
| NCI-H460 | 0.965 | 1 | 0.932 | 0.0202 | 0.777 | 0.71 | 0.654 | 0.647 | 0.576 | 0.712 | 0.63 | 0.159 | 0.0184 | 0.955 | 0.66 | 0.684 | 0.708 | 0.71 |
| NCI-H520 | 1.14 | 0.991 | 0.986 | 0.605 | 0.215 | 0.219 | 0.201 | 0.274 | 0.22 | 1.01 | 0.88 | 0.82 | 0.454 | 0.66 | 0.662 | 0.761 | 0.681 | 0.753 |
| NCI-H596 | 1 | 1.06 | 0.951 | 0.637 | 0.812 | 0.653 | 0.613 | 0.695 | 0.663 | 1.04 | 0.91 | 0.973 | 0.897 | 0.544 | 0.645 | 0.545 | 0.613 | 0.649 |
| NCI-H647 | 1.11 | 1.19 | 1.12 | 0.762 | 0.68 | 0.636 | 0.603 | 0.75 | 0.73 | 0.982 | 1.13 | 1.38 | 0.48 | 0.646 | 0.607 | 0.563 | 0.639 | 0.437 |
| NCI-H727 | 0.374 | 0.449 | 0.245 | 0.121 | 0.623 | 0.549 | 0.54 | 0.592 | 0.578 | 0.287 | 0.309 | 0.163 | 0.167 | 1.13 | 1.26 | 1.09 | 1.12 | 1.09 |
| NCI-H838 | 1.22 | 1.06 | 1.09 | 0.147 | 0.373 | 0.464 | 0.354 | 0.409 | 0.392 | 1.03 | 1.01 | 0.74 | 0.149 | 0.755 | 0.681 | 0.712 | 0.688 | 0.71 |
| NCI-H1355 | 0.984 | 0.873 | 1.09 | 0.865 | 0.386 | 0.46 | 0.423 | 0.459 | 0.452 | 0.795 | 0.737 | 0.79 | 0.722 | 0.646 | 0.619 | 0.615 | 0.605 | 0.481 |
| NCI-H1395 | 1.62 | 1.17 | 1.03 | 0.831 | 0.639 | 0.663 | 0.631 | 0.632 | 0.657 | 1.12 | 1.01 | 0.978 | 0.603 | 0.674 | 0.596 | 0.554 | 0.73 | 0.551 |
| NCI-H1437 | 1.03 | 1.08 | 1.1 | 0.455 | 0.93 | 0.899 | 0.889 | 0.961 | 0.813 | 1.14 | 1.17 | 0.81 | 0.344 | 0.901 | 0.857 | 0.851 | 0.923 | 0.841 |
| NCI-H1651 | 0.983 | 1.08 | 0.997 | 0.882 | 0.631 | 0.661 | 0.668 | 0.75 | 0.743 | 1.16 | 0.963 | 0.917 | 0.886 | 0.66 | 0.561 | 0.566 | 0.535 | 0.546 |
| NCI-H1666 | 0.893 | 0.758 | 0.724 | 0.316 | 0.897 | 0.838 | 0.793 | 0.827 | 0.847 | 0.727 | 0.784 | 0.807 | 0.376 | 1.05 | 0.98 | 1.03 | 1.07 | 0.985 |
| NCI-H1734 | 0.893 | 0.758 | 0.686 | 0.452 | 0.632 | 0.602 | 0.573 | 0.586 | 0.349 | 0.92 | 0.874 | 0.796 | 0.549 | 0.788 | 0.852 | 0.757 | 0.718 | 0.859 |
| NCI-H1755 | 1.05 | 0.983 | 1.02 | 0.986 | 0.705 | 0.74 | 0.786 | 0.689 | 0.703 | 1 | 0.993 | 1.03 | 0.967 | 0.81 | 0.773 | 0.709 | 0.824 | 0.728 |
